Reference: the METLIN SMRT retention time set (Domingo-Almenara et al. 2019)

Experiment: gradient 5% acetonitrile 3 min, to 50% in 2 min, to 85% in 15 min, held 3 min, 100 µL/min
Conditions: column: Zorbax Extend-C18 2.1 x 50 mm; eluents: water / acetonitrile, 0.1% formic acid
In short: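 Each retention time is based on an adduct peak selected computationally and verified by manual inspection. Measurements used HPLC–quadrupole time-of-flight mass spectrometry in positive and negative ionization mode on mixtures of ~100 pure standards. Chromatography ran on a Zorbax Extend-C18 column (2.1 × 50 mm, 1.8 μm) at 100 μL/min with water and acetonitrile, each containing 0.1% formic acid, and dead and dwell volumes of 40 μL and 900 μL.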

RP-LC retention time	Compound
591 s	CCOC(=O)N1CCN(CC(O)COc2c(F)cc(Br)cc2F)CC1 (stereo not given)
784 s	CCOc1ccccc1NC(=O)C1CCCN1S(=O)(=O)c1cc2c(cc1C)NC(=O)C(C)O2 (stereo not given)
604 s	COc1ccc(CNC(=O)c2cn3cccc(C)c3n2)cc1OC
988 s	Cc1ccc(C2c3[nH]c4ccccc4c3CCN2C(=O)Cc2cccs2)cc1 (stereo not given)
620 s	C[C@@H](NC(=O)c1ccccc1F)C(=O)NCc1cscn1
902 s	CCN1c2ccc(C)cc2C(=O)NC12CCN(C(=O)c1ccc(Br)cc1)CC2
748 s	CC(C)CNC(=O)CN1CCN(Cc2cccc(Cl)c2)C1=O
686 s	O=C(Cc1ccc(NC(=O)c2ccc(F)c(F)c2)cc1)NC1CC1
1000 s	CCCCOC(=O)CSc1nnc(-c2cc(OC)c(OC)c(OC)c2)o1
575 s	CN1CCC(Oc2ncccc2NS(=O)(=O)N(C)C)CC1
744 s	CC(=O)Nc1ccc(NC(=O)C2CCCN(S(=O)(=O)c3cc(-c4noc(C)n4)cs3)C2)cc1 (stereo not given)
775 s	CC(Cc1ccco1)NC(=O)CCCn1c2ccccc2c2cnn(C)c(=O)c21 (stereo not given)
621 s	Cc1cc(Nc2nc(C(=O)NCCN3CCOCC3)cc3occc23)ccc1Br
720 s	CCn1cc(C)c(C(=O)O)c1CC(=O)N1CCCCCC1
594 s	O=C(Cc1cn2cc(F)ccc2n1)Nc1ccc(F)cc1
962 s	Fc1cccc(-c2noc(-c3cc(N4CCN(c5ccccn5)CC4)nc4ccccc34)n2)c1
740 s	Cc1nc2nc(-c3ccccc3)nn2c(C)c1CC(=O)N(CCO)Cc1ccccc1
804 s	O=C1NCCCn2cc(S(=O)(=O)N3CCN(c4cccc(Cl)c4)CC3)cc21
633 s	O=S(=O)(c1ccc2c(c1)OCCO2)N1CCC(Cc2nc(-c3cccnc3)n[nH]2)C1 (stereo not given)
765 s	COc1ccc(N2C(=O)NC3CC2(C)Oc2ccc(OC)cc23)cc1 (stereo not given)
733 s	COc1ccc(-n2ccn3cc(-c4ccc5c(c4)OCO5)nc3c2=O)cc1OC
705 s	CC[C@H](C)NC(=O)Cc1nnc(-c2ccccc2)o1

RP-LC retention time	Compound
628 s	O=C(C1CCN(c2cc(N3CCCCC3)ncn2)CC1)N1CCSCC1
771 s	Cc1ccc(N2CCn3c2nc2c3c(=O)n(CC(=O)O)c(=O)n2C)cc1C
789 s	O=C(Nc1nnc(C2CCCCC2)s1)C1CCN(C(=O)c2ccccc2)CC1
649 s	CN(C)C(=O)N1CCc2nn(Cc3ccccc3)c(=O)n2CC1
671 s	COc1cccc(S(=O)(=O)N2CCCN(C3CCN(Cc4ccccc4)C3=O)CC2)c1 (stereo not given)
699 s	CCc1ccc(NC(=O)Cn2c(N3CCCC3)nc(C)cc2=O)cc1
627 s	Cc1cc2nn(CC(=O)NCc3ccccc3)c(=O)n2c(-c2cccc(F)c2)n1
656 s	COc1ccc(S(=O)(=O)Nc2ccc(-c3cn4ccc(C)nc4n3)cc2)cc1
906 s	COC(=O)c1ccc(-c2nc3cnccn3c2Nc2ccccc2C)cc1
783 s	Cc1noc(C2CN(C(=O)Nc3cccc(Cl)c3F)CC23CCOCC3)n1 (stereo not given)
544 s	Cc1cc(C(N)=O)c2cc(F)ccc2n1
742 s	CCOC(=O)N1CCN(C(=O)CSc2ncnc3c2oc2ccccc23)CC1
952 s	Cc1nn(-c2ccccc2)c(C)c1N1CCN(S(=O)(=O)c2c(C)noc2C)CC1
563 s	O=C(c1cnccn1)N1C[C@@H](COCC2CC2)[C@H](c2ccncc2)C1
795 s	O=C1CCCc2cc(S(=O)(=O)N3CCC(C(=O)NC4CCCc5ccccc54)CC3)ccc2N1 (stereo not given)
740 s	Cc1ccc(C(=O)N2CCCCC2c2nncn2CC2CC2)s1 (stereo not given)
841 s	CCCCOC(=O)CC1C(=O)NCCN1C(=O)c1cc(Br)ccc1OCC (stereo not given)
676 s	CCn1ccc2cc(S(=O)(=O)N3CCCC(C(=O)NCCCN4CCCCC4)C3)ccc21 (stereo not given)
799 s	Cc1oc(-c2ccc(NC(=O)C3CCC3)cc2)nc1Cn1cccn1
872 s	CC(Oc1ccc(-c2cnc3ccccc3n2)cc1)C(=O)N1CCN(c2ncccn2)CC1 (stereo not given)
1230 s	CCOc1ccccc1C(=O)n1nc(C)c(S(=O)(=O)N2CCC(C)CC2)c1C
859 s	CC1=C(c2ccc(C)cc2)S(=O)(=O)N=C1N1CCCN(C(=O)c2cccc(F)c2)CC1

RP-LC retention time	Compound
674 s	CCOC(=O)C1CCCN(C(=O)c2cc3c(=O)n(C)c(=O)n(C)c3s2)C1 (stereo not given)
881 s	Cc1nn(CC(=O)NCc2ccco2)c(=O)c2c(-n3cccc3)n(-c3ccccc3)nc12
802 s	COc1ccc(-c2ncc(NC(=O)C(C)C)cn2)cc1
808 s	COc1cccc(C2c3c(oc4ccc(C)cc4c3=O)C(=O)N2CCCN2CCOCC2)c1OC (stereo not given)
1130 s	Clc1ccccc1-c1noc(-c2nc(-c3ccncc3)no2)n1
590 s	CCOC(=O)CNC(=O)Nc1cc(F)c2nc(N3CCCC3)ccc2c1
663 s	CN(C)C[C@@H]1CN(S(C)(=O)=O)C[C@H]1NC(=O)C1(c2ccccc2)CCCC1
859 s	Cc1cc(=O)n(CC(=O)Nc2cccc(Cl)c2)c(N2CCc3ccccc3C2)n1
673 s	C=CCn1c(C)c(CC(=O)NCCOC)c(=O)n2nc(-c3ccccc3)nc12
733 s	Cc1cc(N(C)C)nc(N2CCN(S(=O)(=O)c3ccc(Br)cc3)CC2)n1
888 s	CCN1c2cc(Cl)ccc2C(=O)NC12CCN(C(=O)NCc1ccc(C)cc1)CC2
735 s	O=C(C1=NNc2ccccc2S1(=O)=O)N1CCCCCC1
588 s	O=C(NCc1cccnc1)C(=O)NCc1ccc2c(c1)OCO2
862 s	COc1ccc(C)cc1NC(=O)Cn1nc2nc(Nc3ccc(C)cc3)ccn2c1=O
1080 s	Fc1ccccc1-c1nnc2sc(-c3ccc4ccccc4n3)nn12
721 s	COc1ccc(NS(=O)(=O)/C=C/c2ccccc2)cc1N1CCCC1=O
792 s	O=C(Nc1cccc(-c2ccc(N3CCOCC3)nn2)c1)Nc1ccc2c(c1)CCC2
872 s	CCS(=O)(=O)N1CC(=O)N(c2ccc(C(C)C)cc2)C(C)(C(=O)NCc2ccc(F)cc2)C1 (stereo not given)
702 s	CCNC(=O)c1cn(-c2ccc(SCC(=O)Nc3ccc(Cl)cc3F)nn2)cn1
724 s	CC(=O)NCC(=O)N1c2ccccc2CC1c1nc(C(C)C)no1 (stereo not given)
658 s	COCc1c(C(=O)O)nnn1Cc1ccc(OC)c(F)c1
688 s	COc1ccccc1N1CCN(C(=O)C2CCCN(c3cnc4nccnc4c3)C2)CC1 (stereo not given)

RP-LC retention time	Compound
1210 s	CCCn1c(=O)c(C)nc2cc(-c3noc(-c4cccc(F)c4)n3)ccc21
684 s	Cc1oc(C2CCN(C(=O)CCc3cc(Cl)no3)CC2)nc1C(=O)N1CCOCC1
632 s	CCC1(O)C(=O)OCc2c1cc1n(c2=O)Cc2cc3c(N)cccc3nc2-1 (stereo not given)
786 s	CCn1ccc2sc(C)c(C(=O)NCc3ccc(OC)cc3)c2c1=O
1090 s	COC(=O)c1cc(C2CC2)nc2c1c(=O)n(Cc1ccc(F)cc1)c(=O)n2C
1100 s	CN(C)c1ccc(/C=C(\C#N)C(=O)c2ccccc2)cc1
682 s	CCOc1ccc(-c2nnc(SCC(N)=O)o2)cc1
1140 s	CCn1c(SCC(=O)Nc2nc(-c3ccc(C)cc3)cs2)nnc1-c1cc2ccccc2o1
993 s	O=C(CC1Sc2ccc(C(F)(F)F)cc2NC1=O)Nc1cccc(Cl)c1Cl (stereo not given)
879 s	CC(C)c1noc(-c2ccnc(-n3cnc(C(=O)NCC4CC4)c3)c2)n1
909 s	COc1ccc(OC)c(NC(=O)C(=O)c2ccc[nH]2)c1
1150 s	CCn1c(C(=O)NCCCOC(C)C)cc2c(-c3cccs3)nn(-c3ccccc3)c21
720 s	CC(C)c1ccc(S(=O)(=O)N2CCC3(CC2)c2nccn2CCN3C)cc1
928 s	Cc1nc(N2CCN(C(=O)CCCc3ccccc3)CC2)cc(-n2cccn2)n1
785 s	COc1ccc(Cl)cc1S(=O)(=O)N1C[C@@H](F)C[C@H]1C(=O)N1CCCCC1
696 s	CNc1nc(Nc2cn(C(C)(C)C#N)nc2C)ncc1C(F)(F)F
926 s	Fc1cc(F)cc(Cc2nc3nccc(-c4ccccc4)n3n2)c1
754 s	Cc1ccccc1NC(=O)N1CCC(n2cnc3c(C)cccc3c2=O)CC1
892 s	CCCc1cnc2c(c1SCC(=O)N(CC)CC)c(=O)n(C)c(=O)n2C
798 s	COC(=O)c1scc(-c2ccc(C)cc2)c1S(=O)(=O)N1CCC(C(N)=O)CC1
686 s	COCCOC1CCC12CCN(C(=O)c1ocnc1C)CC2 (stereo not given)
836 s	O=C1CCCCC(Cc2ccccc2)(C(=O)N2CCc3ccccc3C2)N1 (stereo not given)

Compound	RP-LC retention time
Cn1c(=O)sc2cc(S(=O)(=O)N3CCC(C(=O)N4CCC5(CC4)OCCO5)CC3)ccc21	709 s
COc1ccc2c(c1)C1(CCN(S(=O)(=O)c3cc(F)cc(F)c3)C1)C(=O)N2C (stereo not given)	940 s
